# Test results as given in patent US5068247A, “2-aminopentanoic acid compounds and their use as immunosuppressants” (priority 1989, dated 1991).
# Read-outs that look alike come from different tables or passages of the source.
# What was measured:
# [1] = tested on: human allogenic MLR (human peripheral blood lymphocytes); experiment: human allogenic MLR-suppressive activity, 3H-thymidine uptake; type: cell-based; conditions: for suppressive activity in human allogenic MLR (in words): 1 to 0.0001 μg/ml
# Description: The human allogenic MLR-suppressive activity was assayed as follows:
# Human peripheral blood lymphocytes obtained by Ficoll-Paque density gradient centrifugation of normal human peripheral blood were suspended in the RPMI1640 culture medium supplemented with 10% FCS, placed in a plastic dish, and cultured in an atmosphere of 5% carbon dioxide and 95% air at 37° C. for 2 hours. After termination of culture, the supernatant after gentle pipetting was collected and centrifuged (1000 rpm, for 5 minutes) to obtain plastic-nonadherent cells. The plastic-nonadherent cells were allowed to pass through a nylon-wool column to give nylon-nonadherent cells, and the concentration of the cell suspension was adjusted to 4×10^6 cells/ml by using the RPMI1640 culture medium supplemented with 10% FCS, and used as the responder cell suspension.
# The plastic-adherent cells were removed from the plastic dish by vigorous pipetting after addition of phosphate buffered saline (PBS) supplemented with 5% FCS and 0.02% disodium ethylenediaminetetraacetic acid (EDTA). The plastic-adherent cells were treated with 40 μg/ml of mitomycin C at 37° C. for 60 minutes, washed three times, and suspended to the concentration of 4×10^6 cells/ml in the RPMI1640 culture medium supplemented with 10% FCS. The resultant suspension was used as the stimulator cell suspension.
# After termination of culture, 37 KBq/well of ^3 H-thymidine was added, and after 18 hours of culture, the cells were harvested by a cell-harvester. The radioactivity incorporated into the cells was measured by a liquid scintillation counter, which was used as an index of blastogenic response of lymphocytes in human allogenic MLR. The suppression of human allogenic MLR was evaluated by calculating the percent suppression by the following formula. [formula]
# [2] = tested on: allo-reactive cytotoxic T cell (EL4 target cells); experiment: suppression of induction of allo-reactive cytotoxic T cell in mouse allogenic mixed lymphocyte culture (MLC), 51Cr release; type: cell-based
# Description: The target cells used were leukemia cells EL4 from the syngenic (H-2^b) C57BL/6 mouse as used for preparation of the stimulator cells. By incubating 10^6 EL4 cells in the presence of 370 KBq of Na2^51 CrO4 at 37° C. for 1 hour, ^51 Cr was incorporated into the cytoplasm. The cells were washed, adjusted to the concentration of 10^4 cells/ml and used as the target cells.
# For the assay of the cytotoxic activity, 100 μl of the effector cell suspension and 100 μl of the target cell suspension were added to a 96-well flat-bottomed microculture plate, and cultured at 37° C. for 4 hours. The amount of ^51 Cr released into the supernatant was determined and the cytotoxic activity was calculated by the following formula. [formula]
# The activity of the cytotoxic T cell is expressed by LU (lytic unit) per 10^6 effector cells.
# [3] = Homo sapiens, Lymphocyte, 0.0001 μg/ml, Donor A/Donor B, read-out: Suppression
# [4] = Homo sapiens, Lymphocyte, 0.0001 μg/ml, Donor C/Donor D, read-out: Suppression
# [5] = Homo sapiens, Lymphocyte, 0.001 μg/ml, Donor A/Donor B, read-out: Suppression
# [6] = Homo sapiens, Lymphocyte, 0.001 μg/ml, Donor C/Donor D, read-out: Suppression
# [7] = Homo sapiens, Lymphocyte, 0.01 μg/ml, Donor A/Donor B, read-out: Suppression
# [8] = Homo sapiens, Lymphocyte, 0.01 μg/ml, Donor C/Donor D, read-out: Suppression
# [9] = Homo sapiens, Lymphocyte, 0.1 μg/ml, Donor A/Donor B, read-out: Suppression
# [10] = Homo sapiens, Lymphocyte, 0.1 μg/ml, Donor C/Donor D, read-out: Suppression
# [11] = Homo sapiens, Lymphocyte, 1 μg/ml, Donor A/Donor B, read-out: Suppression
# [12] = Homo sapiens, Lymphocyte, 1 μg/ml, Donor C/Donor D, read-out: Suppression
smiles,measurement,setting,value
CCCCCCCCCCCCC/C=C/C[C@@H](O)[C@H](O)[C@@](N)(CO)C(=O)O [Example 5],3H-thymidine uptake,"[1]; 0.00001 μg/ml, Donor A/Donor B",14723 cpm
same,3H-thymidine uptake,"[1]; 0.0001 μg/ml, Donor A/Donor B",8052 cpm
same,3H-thymidine uptake,"[1]; 0.0001 μg/ml, Donor C/Donor D",15723 cpm
same,3H-thymidine uptake,"[1]; 0.001 μg/ml, Donor A/Donor B",5363 cpm
same,3H-thymidine uptake,"[1]; 0.001 μg/ml, Donor C/Donor D",7145 cpm
same,3H-thymidine uptake,"[1]; 0.01 μg/ml, Donor A/Donor B",5042 cpm
same,3H-thymidine uptake,"[1]; 0.01 μg/ml, Donor C/Donor D",5878 cpm
same,3H-thymidine uptake,"[1]; 0.1 μg/ml, Donor A/Donor B",4660 cpm
same,3H-thymidine uptake,"[1]; 0.1 μg/ml, Donor C/Donor D",4703 cpm
same,3H-thymidine uptake,"[1]; 1 μg/ml, Donor A/Donor B",5545 cpm
same,3H-thymidine uptake,"[1]; 1 μg/ml, Donor C/Donor D",5601 cpm
same,suppressive activity in human allogenic MLR (in words),[1],exhibited suppressive activity in human allogenic MLR in a concentration-dependent manner
same,inhibition at 10 pg/mL,"[1]; Homo sapiens, Lymphocyte, 0.00001 μg/ml, Donor A/Donor B, read-out: Suppression",0%
same,inhibition at 0.0001 µg/mL,[1]; [3],34.4%
same,inhibition at 0.0001 µg/mL,[1]; [4],22.1%
same,inhibition at 0.001 µg/mL,[1]; [5],58.5%
same,inhibition at 0.001 µg/mL,[1]; [6],65.8%
same,inhibition at 0.01 µg/mL,[1]; [7],61.4%
same,inhibition at 0.01 µg/mL,[1]; [8],72.3%
same,inhibition at 0.1 µg/mL,[1]; [9],64.8%
same,inhibition at 0.1 µg/mL,[1]; [10],78.3%
same,inhibition at 1 µg/mL,[1]; [11],56.9%
same,inhibition at 1 µg/mL,[1]; [12],73.7%
same,Cytotoxic activity,"[2]; 0.00001 μg/ml, C3H/HeN responder",9.8 LU/10^6
same,Cytotoxic activity,"[2]; 0.0001 μg/ml, BALB/c responder",9.2 LU/10^6
same,Cytotoxic activity,"[2]; 0.0001 μg/ml, C3H/HeN responder",8.0 LU/10^6
same,Cytotoxic activity,"[2]; 0.001 μg/ml, BALB/c responder",3.7 LU/10^6
same,Cytotoxic activity,"[2]; 0.001 μg/ml, C3H/HeN responder",6.8 LU/10^6
same,Cytotoxic activity,"[2]; 0.01 μg/ml, BALB/c responder",1.6 LU/10^6
same,Cytotoxic activity,"[2]; 0.01 μg/ml, C3H/HeN responder",< 0.5 LU/10^6
same,Cytotoxic activity,"[2]; 0.1 μg/ml, BALB/c responder",< 0.5 LU/10^6
same,Cytotoxic activity,"[2]; 0.1 μg/ml, C3H/HeN responder",< 0.5 LU/10^6
same,Cytotoxic activity,"[2]; 1 μg/ml, BALB/c responder",< 0.5 LU/10^6
same,Cytotoxic activity,"[2]; 1 μg/ml, C3H/HeN responder",< 0.5 LU/10^6
same,inhibition at 10 pg/mL,"[2]; Mus musculus, T-cell, 144 h, 0.00001 μg/ml, C3H/HeN responder",35.4%
same,inhibition at 0.0001 µg/mL,"[2]; Mus musculus, T-cell, 144 h, 0.0001 μg/ml, BALB/c responder",34.1%
same,inhibition at 0.0001 µg/mL,"[2]; Mus musculus, T-cell, 144 h, 0.0001 μg/ml, C3H/HeN responder",47.5%
same,inhibition at 0.001 µg/mL,"[2]; Mus musculus, T-cell, 144 h, 0.001 μg/ml, C3H/HeN responder",54.2%
same,inhibition at 0.01 µg/mL,"[2]; Mus musculus, T-cell, 144 h, 0.01 μg/ml, C3H/HeN responder",> 95%
same,inhibition at 0.1 µg/mL,"[2]; Mus musculus, T-cell, 144 h, 0.1 μg/ml, C3H/HeN responder",> 95%
same,inhibition at 1 µg/mL,"[2]; Mus musculus, T-cell, 144 h, 1 μg/ml, C3H/HeN responder",> 95%
same,inhibition at 0.001 µg/mL,"[2]; Mus musculus, T-cell, 144 h, 0.001 μg/ml, BALB/c responder",73.2%
same,inhibition at 0.01 µg/mL,"[2]; Mus musculus, T-cell, 144 h, 0.01 μg/ml, BALB/c responder",88.4%
same,inhibition at 0.1 µg/mL,"[2]; Mus musculus, T-cell, 144 h, 0.1 μg/ml, BALB/c responder",> 95%
same,inhibition at 1 µg/mL,"[2]; Mus musculus, T-cell, 144 h, 1 μg/ml, BALB/c responder",> 95%
same,"induction of the allo-reactive cytotoxic T cell (in words), BALB/c responder",[2]; Table 3A,markedly inhibited
same,"induction of the allo-reactive cytotoxic T cell (in words), C3H/HeN responder",[2]; Table 3B,suppressed
CCCCCCC1(CCCCCC/C=C/C[C@@H](O)[C@H](O)[C@@](N)(CO)C(=O)O)SCCS1 [Example 3],3H-thymidine uptake,"[1]; 0.0001 μg/ml, Donor A/Donor B",10700 cpm
same,3H-thymidine uptake,"[1]; 0.0001 μg/ml, Donor C/Donor D",18512 cpm
same,3H-thymidine uptake,"[1]; 0.001 μg/ml, Donor A/Donor B",7285 cpm
same,3H-thymidine uptake,"[1]; 0.001 μg/ml, Donor C/Donor D",17138 cpm
same,3H-thymidine uptake,"[1]; 0.01 μg/ml, Donor A/Donor B",7790 cpm
same,3H-thymidine uptake,"[1]; 0.01 μg/ml, Donor C/Donor D",15337 cpm
same,3H-thymidine uptake,"[1]; 0.1 μg/ml, Donor A/Donor B",6582 cpm
same,3H-thymidine uptake,"[1]; 0.1 μg/ml, Donor C/Donor D",8187 cpm
same,3H-thymidine uptake,"[1]; 1 μg/ml, Donor A/Donor B",5909 cpm
same,3H-thymidine uptake,"[1]; 1 μg/ml, Donor C/Donor D",5143 cpm
same,suppressive activity in human allogenic MLR (in words),[1],exhibited suppressive activity in human allogenic MLR in a concentration-dependent manner
same,inhibition at 0.0001 µg/mL,[1]; [3],10.7%
same,inhibition at 0.0001 µg/mL,[1]; [4],7.9%
same,inhibition at 0.001 µg/mL,[1]; [5],41.3%
same,inhibition at 0.001 µg/mL,[1]; [6],14.9%
same,inhibition at 0.01 µg/mL,[1]; [7],36.8%
same,inhibition at 0.01 µg/mL,[1]; [8],24.1%
same,inhibition at 0.1 µg/mL,[1]; [9],47.6%
same,inhibition at 0.1 µg/mL,[1]; [10],60.5%
same,inhibition at 1 µg/mL,[1]; [11],53.7%
same,inhibition at 1 µg/mL,[1]; [12],76%
